In patent US20220225639A1, “IMMUNE-STIMULATING COMPOSITIONS FOR AQUACULTURE SPECIES” (MIREXUS BIOTECHNOLOGIES INC., priority 2019, published 2022):

Tested on: rainbow trout gut cells (RT-gut)
Experiment: Uptake and intracellular stability of fluorescently labelled poly IC (fluorescent microscopy)
Format: cell-based
Conditions: 1 ug/ml, 20 degree treatment, 4 hours
Procedure: Per Example 7, low molecular weight poly:IC was labelled with a fluorescent dye, then left as “free” poly:IC or coupled with Cat-PhG (0.38) at a 1:1 (w/w) ratio. Free poly:IC or PhG coupled poly:IC was added to RT-gut cells at a concentration of 1 ug/ml and incubated at 4° C. or 20° C. for 4 hours. Cells were imaged via fluorescent microscopy, and average intracellular fluorescence intensity was measured from 5 randomly selected cells.
Low molecular weight poly IC was labelled with the Ulysis AlexaFluor 546 labelling kit (Invitrogen), then left as “free” poly IC or couple with cationic PhG (0.38) at a 1:1 (w/w) ratio. Free poly IC or PhG coupled poly IC was added to RT-gut cells at a concentration of 1 ug/ml and incubated at 4° C. or 20° C. for 4 hours. Cells were imaged via fluorescent microscopy, and average intracellular fluorescence intensity was measured from 5 randomly selected cells.

With “polyinosinic:polycytidylic acid [free poly IC]” the intracellular fluorescence was “no fluorescence was detected”.
